Reference: patent US20130158080A1, “METHODS FOR TREATING HYPERTENSION IN BLACK PATIENTS” (Takeda Pharmaceuticals U.S.A., Inc., priority 2011, published 2013)

System: subjects with moderate to severe hypertension
Assay: Same study: safety and tolerability (adverse events, laboratory tests, discontinuations)
Set-up: species or system human
Conditions: in vivo
Excerpt: Randomization was stratified by subject's race: Black and non-Black. Before initiation of treatment, all subjects participated in a 2-week, single-blind, placebo Run-in Period (Days −14 to −1). […] Subjects taking previous antihypertensive agents were required to participate in a 3 week Washout Period (Days −21 to −1).
Safety variables included adverse events, vital signs (including orthostatic vital signs), 12-lead electrocardiogram (ECG) findings, and clinical laboratory test results.
Treatment-emergent adverse events (TEAEs) were tabulated, and vital signs and 12-lead ECG findings were summarized with descriptive statistics. All safety data were presented in the listings.

azilsartan medoxomil potassium plus chlorthalidone [TAK-491CLD]
Mean increases in serum creatinine, blood urea nitrogen, and serum uric acid: more common
